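Tested at 5 concentrations; 48 h exposure; 96-well plates; endpoints linearly interpolated, else capped at highest concentration. The concentration for 50% growth inhibition is given as GI50.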 Active and inactive are the calls of the source. Cut-off read from the data, not from the text of the source: active = GI50 up to about 1.1 µM and inactive = higher.
Experiments:
Test in all cases: growth of human tumour cells (NCI), 48 h
MDA-MB-231 = tested on: MDA-MB-231
BT-549 = tested on: BT-549
SK-OV-3 = tested on: SK-OV-3
786-0 = tested on: 786-0
SNB-19 = tested on: SNB-19
HCC 2998 = tested on: HCC 2998
SK-MEL-5 = tested on: SK-MEL-5
OVCAR-5 = tested on: OVCAR-5
U-251 = tested on: U-251
UACC-62 = tested on: UACC-62
OVCAR-8 = tested on: OVCAR-8
COLO 205 = tested on: COLO 205
TK-10 = tested on: TK-10
HCT-116 = tested on: HCT-116
SW-620 = tested on: SW-620
SF-295 = tested on: SF-295
M14 = tested on: M14
SF-268 = tested on: SF-268
T47D = tested on: T47D
PC-3 = tested on: PC-3
OVCAR-4 = tested on: OVCAR-4
CAKI-1 = tested on: CAKI-1
HT-29 = tested on: HT-29
NCI/ADR-RES = tested on: NCI/ADR-RES
HL-60 = tested on: HL-60
RXF 393 = tested on: RXF 393
NCI-H460 = tested on: NCI-H460
NCI-H226 = tested on: NCI-H226
MDA-N = tested on: MDA-N
SK-MEL-2 = tested on: SK-MEL-2
A498 = tested on: A498
ACHN = tested on: ACHN
CCRF-CEM = tested on: CCRF-CEM
A549 = tested on: A549
HOP-92 = tested on: HOP-92
DU-145 = tested on: DU-145
UO-31 = tested on: UO-31
SN12C = tested on: SN12C
MDA-MB-435 = tested on: MDA-MB-435
OVCAR-3 = tested on: OVCAR-3
EKVX = tested on: EKVX
K562 = tested on: K562
RPMI-8226 = tested on: RPMI-8226
HOP-62 = tested on: HOP-62
NCI-H23 = tested on: NCI-H23
SF-539 = tested on: SF-539
Malme-3M = tested on: Malme-3M
KM12 = tested on: KM12
MCF7 = tested on: MCF7
UACC-257 = tested on: UACC-257
HCT-15 = tested on: HCT-15
MOLT-4 = tested on: MOLT-4
IGROV-1 = tested on: IGROV-1
SK-MEL-28 = tested on: SK-MEL-28
NCI-H522 = tested on: NCI-H522
LOX IMVI = tested on: LOX IMVI
SR = tested on: SR
SNB-75 = tested on: SNB-75

**Q.** For `O=C(NN1C(=O)CSC1c1ccco1)c1ccncc1` (stereo not drawn), which GI50 (MDA-MB-231) is on record?
**A.** > 100 µM (inactive)

**Q.** What about the GI50 (BT-549) of the same compound?
**A.** > 100 µM (inactive)

**Q.** And the GI50 (SK-OV-3)?
**A.** > 100 µM (inactive)

**Q.** And the GI50 (786-0)?
**A.** > 100 µM (inactive)

**Q.** And the GI50 (SNB-19)?
**A.** > 100 µM (inactive)

**Q.** And the GI50 (HCC 2998)?
**A.** > 100 µM (inactive)

**Q.** What about the GI50 (SK-MEL-5) of the same compound?
**A.** > 100 µM (inactive)

**Q.** And the GI50 (OVCAR-5)?
**A.** > 100 µM (inactive)

**Q.** What about the GI50 (U-251) of the same compound?
**A.** > 100 µM (inactive)

**Q.** What about the GI50 (UACC-62) of the same compound?
**A.** > 100 µM (inactive)

**Q.** And the GI50 (OVCAR-8)?
**A.** > 100 µM (inactive)

**Q.** And the GI50 (COLO 205)?
**A.** > 100 µM (inactive)

**Q.** What about the GI50 (TK-10) of the same compound?
**A.** > 100 µM (inactive)

**Q.** And the GI50 (HCT-116)?
**A.** > 100 µM (inactive)

**Q.** What about the GI50 (SW-620) of the same compound?
**A.** > 100 µM (inactive)

**Q.** And the GI50 (SF-295)?
**A.** > 100 µM (inactive)

**Q.** What about the GI50 (M14) of the same compound?
**A.** > 100 µM (inactive)

**Q.** And the GI50 (SF-268)?
**A.** > 100 µM (inactive)

**Q.** And the GI50 (T47D)?
**A.** > 100 µM (inactive)

**Q.** What about the GI50 (PC-3) of the same compound?
**A.** > 100 µM (inactive)

**Q.** What about the GI50 (OVCAR-4) of the same compound?
**A.** > 100 µM (inactive)

**Q.** What about the GI50 (CAKI-1) of the same compound?
**A.** > 100 µM (inactive)

**Q.** What about the GI50 (HT-29) of the same compound?
**A.** > 100 µM (inactive)

**Q.** What about the GI50 (NCI/ADR-RES) of the same compound?
**A.** > 100 µM (inactive)

**Q.** What about the GI50 (HL-60) of the same compound?
**A.** > 100 µM (inactive)

**Q.** And the GI50 (RXF 393)?
**A.** > 100 µM (inactive)

**Q.** What about the GI50 (NCI-H460) of the same compound?
**A.** > 100 µM (inactive)

**Q.** What about the GI50 (NCI-H226) of the same compound?
**A.** > 100 µM (inactive)

**Q.** What about the GI50 (MDA-N) of the same compound?
**A.** > 100 µM (inactive)

**Q.** What about the GI50 (SK-MEL-2) of the same compound?
**A.** > 100 µM (inactive)

**Q.** And the GI50 (A498)?
**A.** > 100 µM (inactive)

**Q.** What about the GI50 (ACHN) of the same compound?
**A.** > 100 µM (inactive)

**Q.** What about the GI50 (CCRF-CEM) of the same compound?
**A.** > 100 µM (inactive)

**Q.** What about the GI50 (A549) of the same compound?
**A.** > 100 µM (inactive)

**Q.** And the GI50 (HOP-92)?
**A.** > 100 µM (inactive)

**Q.** And the GI50 (DU-145)?
**A.** > 100 µM (inactive)

**Q.** And the GI50 (UO-31)?
**A.** > 100 µM (inactive)

**Q.** What about the GI50 (SN12C) of the same compound?
**A.** > 100 µM (inactive)

**Q.** And the GI50 (MDA-MB-435)?
**A.** > 100 µM (inactive)

**Q.** What about the GI50 (OVCAR-3) of the same compound?
**A.** > 100 µM (inactive)

**Q.** What about the GI50 (EKVX) of the same compound?
**A.** > 100 µM (inactive)

**Q.** And the GI50 (K562)?
**A.** > 100 µM (inactive)

**Q.** And the GI50 (RPMI-8226)?
**A.** > 100 µM (inactive)

**Q.** And the GI50 (HOP-62)?
**A.** > 100 µM (inactive)

**Q.** And the GI50 (NCI-H23)?
**A.** > 100 µM (inactive)

**Q.** And the GI50 (SF-539)?
**A.** > 100 µM (inactive)

**Q.** And the GI50 (Malme-3M)?
**A.** > 100 µM (inactive)

**Q.** And the GI50 (KM12)?
**A.** > 100 µM (inactive)

**Q.** What about the GI50 (MCF7) of the same compound?
**A.** > 100 µM (inactive)

**Q.** And the GI50 (UACC-257)?
**A.** > 100 µM (inactive)

**Q.** And the GI50 (HCT-15)?
**A.** > 100 µM

**Q.** What about the GI50 (MOLT-4) of the same compound?
**A.** > 100 µM (inactive)

**Q.** What about the GI50 (IGROV-1) of the same compound?
**A.** > 100 µM (inactive)

**Q.** What about the GI50 (SK-MEL-28) of the same compound?
**A.** > 100 µM (inactive)

**Q.** What about the GI50 (NCI-H522) of the same compound?
**A.** > 100 µM (inactive)

**Q.** With `CC(C)(SCc1ccccc1)C(N)C(=O)O` (stereo not drawn) as the compound, how does the GI50 (MDA-MB-231) read?
**A.** > 100 µM (inactive)

**Q.** What about the GI50 (BT-549) of the same compound?
**A.** > 100 µM (inactive)

**Q.** And the GI50 (786-0)?
**A.** > 100 µM (inactive)

**Q.** What about the GI50 (SNB-19) of the same compound?
**A.** > 100 µM (inactive)

**Q.** And the GI50 (SK-MEL-5)?
**A.** > 100 µM (inactive)

**Q.** What about the GI50 (OVCAR-5) of the same compound?
**A.** > 100 µM (inactive)

**Q.** What about the GI50 (U-251) of the same compound?
**A.** > 100 µM (inactive)

**Q.** And the GI50 (LOX IMVI)?
**A.** > 100 µM (inactive)

**Q.** And the GI50 (UACC-62)?
**A.** > 100 µM (inactive)

**Q.** And the GI50 (OVCAR-8)?
**A.** > 100 µM (inactive)

**Q.** And the GI50 (TK-10)?
**A.** > 100 µM (inactive)

**Q.** What about the GI50 (SR) of the same compound?
**A.** > 100 µM (inactive)

**Q.** And the GI50 (HCT-116)?
**A.** > 100 µM (inactive)

**Q.** What about the GI50 (SW-620) of the same compound?
**A.** > 100 µM (inactive)

**Q.** And the GI50 (SF-295)?
**A.** > 100 µM (inactive)

**Q.** What about the GI50 (M14) of the same compound?
**A.** > 100 µM (inactive)

**Q.** And the GI50 (SF-268)?
**A.** > 100 µM (inactive)

**Q.** And the GI50 (T47D)?
**A.** > 100 µM (inactive)

**Q.** What about the GI50 (PC-3) of the same compound?
**A.** > 100 µM (inactive)

**Q.** And the GI50 (OVCAR-4)?
**A.** > 100 µM (inactive)

**Q.** And the GI50 (CAKI-1)?
**A.** > 100 µM (inactive)

**Q.** What about the GI50 (HT-29) of the same compound?
**A.** > 100 µM (inactive)

**Q.** And the GI50 (NCI/ADR-RES)?
**A.** > 100 µM (inactive)

**Q.** And the GI50 (HL-60)?
**A.** > 100 µM (inactive)

**Q.** What about the GI50 (RXF 393) of the same compound?
**A.** > 100 µM (inactive)

**Q.** What about the GI50 (NCI-H460) of the same compound?
**A.** > 100 µM (inactive)

**Q.** And the GI50 (NCI-H226)?
**A.** > 100 µM (inactive)

**Q.** What about the GI50 (MDA-N) of the same compound?
**A.** > 100 µM (inactive)

**Q.** What about the GI50 (SK-MEL-2) of the same compound?
**A.** > 100 µM (inactive)

**Q.** What about the GI50 (A498) of the same compound?
**A.** > 100 µM (inactive)

**Q.** And the GI50 (ACHN)?
**A.** > 100 µM (inactive)

**Q.** What about the GI50 (CCRF-CEM) of the same compound?
**A.** > 100 µM (inactive)

**Q.** What about the GI50 (A549) of the same compound?
**A.** > 100 µM (inactive)

**Q.** And the GI50 (HOP-92)?
**A.** > 100 µM (inactive)

**Q.** And the GI50 (DU-145)?
**A.** > 100 µM (inactive)

**Q.** And the GI50 (UO-31)?
**A.** > 100 µM (inactive)

**Q.** And the GI50 (SN12C)?
**A.** > 100 µM (inactive)

**Q.** What about the GI50 (SNB-75) of the same compound?
**A.** > 100 µM (inactive)

**Q.** And the GI50 (MDA-MB-435)?
**A.** > 100 µM (inactive)

**Q.** And the GI50 (OVCAR-3)?
**A.** > 100 µM (inactive)

**Q.** And the GI50 (EKVX)?
**A.** > 100 µM (inactive)

**Q.** And the GI50 (K562)?
**A.** > 100 µM (inactive)

**Q.** What about the GI50 (RPMI-8226) of the same compound?
**A.** > 100 µM (inactive)

**Q.** What about the GI50 (HOP-62) of the same compound?
**A.** > 100 µM (inactive)

**Q.** And the GI50 (NCI-H23)?
**A.** > 100 µM (inactive)

**Q.** What about the GI50 (Malme-3M) of the same compound?
**A.** > 100 µM (inactive)

**Q.** And the GI50 (KM12)?
**A.** > 100 µM (inactive)

**Q.** And the GI50 (UACC-257)?
**A.** > 100 µM (inactive)

**Q.** And the GI50 (HCT-15)?
**A.** > 100 µM

**Q.** What about the GI50 (MOLT-4) of the same compound?
**A.** > 100 µM (inactive)

**Q.** What about the GI50 (IGROV-1) of the same compound?
**A.** > 100 µM (inactive)

**Q.** What about the GI50 (SK-MEL-28) of the same compound?
**A.** > 100 µM (inactive)

**Q.** What about the GI50 (NCI-H522) of the same compound?
**A.** > 100 µM (inactive)

From ChEMBL document CHEMBL1201862, “PubChem BioAssay data set” (2004)
